In the supplement of paper PMC11451515:

Tested on: SEM cells
Assay: cell viability relative to DMSO control; higher = less cytotoxic
Settings: 48 h
In short: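 Three leukemia lines were tested: NOMO1 and SEM at 500 cells/well and P12-Ichikawa at 1000 cells/well. Each was adapted for at least four passages in each medium and seeded in 5 μl in 1536-well plates, and library compounds in DMSO were pin-dosed from 47 μM to 0.79 nM in 11 threefold steps. After 48 h at 37°C, CellTiter-Glo One luminescence was read. Viability is a percentage relative to DMSO wells on each plate, with cell-free wells as background.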

[1] = HPLM + 10% dialyzed FBS, 0.000781 µM
[2] = HPLM + 10% dialyzed FBS, 0.00234 µM
[3] = HPLM + 10% dialyzed FBS, 0.00702 µM
[4] = HPLM + 10% dialyzed FBS, 0.0211 µM
[5] = HPLM + 10% dialyzed FBS, 0.0632 µM
[6] = HPLM + 10% dialyzed FBS, 0.19 µM
[7] = HPLM + 10% dialyzed FBS, 0.569 µM
[8] = HPLM + 10% dialyzed FBS, 1.71 µM
[9] = HPLM + 10% dialyzed FBS, 5.12 µM
[10] = HPLM + 10% dialyzed FBS, 15.4 µM
[11] = HPLM + 10% dialyzed FBS, 46.1 µM
[12] = RPMI 5 mM glucose + 10% FBS, 0.000781 µM
[13] = RPMI 5 mM glucose + 10% FBS, 0.00234 µM
[14] = RPMI 5 mM glucose + 10% FBS, 0.00702 µM
[15] = RPMI 5 mM glucose + 10% FBS, 0.0211 µM
[16] = RPMI 5 mM glucose + 10% FBS, 0.0632 µM
[17] = RPMI 5 mM glucose + 10% FBS, 0.19 µM
[18] = RPMI 5 mM glucose + 10% FBS, 0.569 µM
[19] = RPMI 5 mM glucose + 10% FBS, 1.71 µM
[20] = RPMI 5 mM glucose + 10% FBS, 5.12 µM
[21] = RPMI 5 mM glucose + 10% FBS, 15.4 µM
[22] = RPMI 5 mM glucose + 10% FBS, 46.1 µM
[23] = RPMI 5 mM glucose + 10% dialyzed FBS, 0.000781 µM
[24] = RPMI 5 mM glucose + 10% dialyzed FBS, 0.00234 µM
[25] = RPMI 5 mM glucose + 10% dialyzed FBS, 0.00702 µM
[26] = RPMI 5 mM glucose + 10% dialyzed FBS, 0.0211 µM
[27] = RPMI 5 mM glucose + 10% dialyzed FBS, 0.0632 µM
[28] = RPMI 5 mM glucose + 10% dialyzed FBS, 0.19 µM
[29] = RPMI 5 mM glucose + 10% dialyzed FBS, 0.569 µM
[30] = RPMI 5 mM glucose + 10% dialyzed FBS, 1.71 µM
[31] = RPMI 5 mM glucose + 10% dialyzed FBS, 5.12 µM
[32] = RPMI 5 mM glucose + 10% dialyzed FBS, 15.4 µM
[33] = RPMI 5 mM glucose + 10% dialyzed FBS, 46.1 µM

`OC[C@H]1O[C@H](C[C@@H]1O)N2/C=C(C(=O)NC2=O)/C(F)(F)F` showed a cell viability [1] of 77.4%, a cell viability [2] of 95.7% and a cell viability [3] of 90.9%. The cell viability [4] was 89.9%, the cell viability [5] was 92.3% and the cell viability [6] was 88.7%. For the same compound, the cell viability [7] was 72.5%, the cell viability [8] was 50.2% and the cell viability [9] was 26.2%. It also gave a cell viability [10] of 20.5%, a cell viability [11] of 11.8% and a cell viability [12] of 101%. For the same compound, the cell viability [13] was 104%, the cell viability [14] was 116% and the cell viability [15] was 101%. The cell viability [16] was 109%, the cell viability [17] was 123% and the cell viability [18] was 111%. For the same compound, the cell viability [19] was 103%, the cell viability [20] was 79.5% and the cell viability [21] was 30.4%. The cell viability [22] was 15.5%, the cell viability [23] was 100% and the cell viability [24] was 124%. It also gave a cell viability [25] of 111%, a cell viability [26] of 115% and a cell viability [27] of 98.3%. For the same compound, the cell viability [28] was 117%, the cell viability [29] was 93.9% and the cell viability [30] was 66.8%. It also gave a cell viability [31] of 22.6%, a cell viability [32] of 15.5% and a cell viability [33] of 10.3%.

Compound `O=C(O)c1cc(O)c2c(c1)C(=O)c1cccc(O)c1C2=O` has a cell viability [1] of 112%, a cell viability [2] of 113% and a cell viability [3] of 103%. It also gave a cell viability [4] of 108%, a cell viability [5] of 110% and a cell viability [6] of 116%. The cell viability [7] was 89.7%, the cell viability [8] was 111% and the cell viability [9] was 96.8%. For the same compound, the cell viability [10] was 92.9%, the cell viability [11] was 91.9% and the cell viability [12] was 105%. It also gave a cell viability [13] of 108%, a cell viability [14] of 105% and a cell viability [15] of 106%. The cell viability [16] was 104%, the cell viability [17] was 120% and the cell viability [18] was 108%. The cell viability [19] was 111%, the cell viability [20] was 97.9% and the cell viability [21] was 92.9%. It also gave a cell viability [22] of 84.4%, a cell viability [23] of 119% and a cell viability [24] of 116%. The cell viability [25] was 108%, the cell viability [26] was 117% and the cell viability [27] was 118%. For the same compound, the cell viability [28] was 105%, the cell viability [29] was 111% and the cell viability [30] was 113%. For the same compound, the cell viability [31] was 116%, the cell viability [32] was 96.6% and the cell viability [33] was 84.9%.

`COC1=CC=C(C=C1)/C2=C(O)/C(=O)C3=C(O)C=C(O)C(=C3O2)CC=C(C)C` gave a cell viability [1] of 104%, a cell viability [2] of 95.9% and a cell viability [3] of 98.8%. The cell viability [4] was 114%, the cell viability [5] was 122% and the cell viability [6] was 111%. It also gave a cell viability [7] of 109%, a cell viability [8] of 118% and a cell viability [9] of 107%. The cell viability [10] was 97.8%, the cell viability [11] was 120% and the cell viability [12] was 86.7%. For the same compound, the cell viability [13] was 86.2%, the cell viability [14] was 90.8% and the cell viability [15] was 85.6%. For the same compound, the cell viability [16] was 95.2%, the cell viability [17] was 100% and the cell viability [18] was 93.4%. For the same compound, the cell viability [19] was 92%, the cell viability [20] was 94.1% and the cell viability [21] was 80.4%. It also gave a cell viability [22] of 95.2%, a cell viability [23] of 105% and a cell viability [24] of 103%. It also gave a cell viability [25] of 115%, a cell viability [26] of 115% and a cell viability [27] of 120%. It also gave a cell viability [28] of 113%, a cell viability [29] of 124% and a cell viability [30] of 118%. The cell viability [31] was 125%, the cell viability [32] was 121% and the cell viability [33] was 108%.

In the case of `CCc1ccc(OCc2ccccc2C(=O)Nc2ccc3nc(C)cc(N)c3c2)cc1`, the cell viability [1] is reported as 75.2%, the cell viability [2] is reported as 102% and the cell viability [3] is reported as 98.9%. The cell viability [4] was 90.2%, the cell viability [5] was 104% and the cell viability [6] was 117%. For the same compound, the cell viability [7] was 110%, the cell viability [8] was 109% and the cell viability [9] was 26.6%. It also gave a cell viability [10] of 11.3%, a cell viability [11] of 8.33% and a cell viability [12] of 98.5%. For the same compound, the cell viability [13] was 102%, the cell viability [14] was 98.9% and the cell viability [15] was 99.3%. The cell viability [16] was 112%, the cell viability [17] was 111% and the cell viability [18] was 122%. For the same compound, the cell viability [19] was 116%, the cell viability [20] was 109% and the cell viability [21] was 20.7%. It also gave a cell viability [22] of 7.66%, a cell viability [23] of 94.4% and a cell viability [24] of 107%. It also gave a cell viability [25] of 91.4%, a cell viability [26] of 107% and a cell viability [27] of 103%. The cell viability [28] was 114%, the cell viability [29] was 111% and the cell viability [30] was 102%. For the same compound, the cell viability [31] was 111%, the cell viability [32] was 22.1% and the cell viability [33] was 7.91%.

With `CC(C)(N)c1ccc(-c2nc3ccccc3nc2-c2ccccc2)cc1` the cell viability [1] was 99.5%, the cell viability [2] was 109% and the cell viability [3] was 117%. The cell viability [4] was 100%, the cell viability [5] was 38.5% and the cell viability [6] was 15.5%. It also gave a cell viability [7] of 6.7%, a cell viability [8] of 6.11% and a cell viability [9] of 5.5%. For the same compound, the cell viability [10] was 3.11%, the cell viability [11] was 3.57% and the cell viability [12] was 110%. For the same compound, the cell viability [13] was 103%, the cell viability [14] was 93.7% and the cell viability [15] was 36.2%. The cell viability [16] was 12.4%, the cell viability [17] was 7.19% and the cell viability [18] was 5.88%. The cell viability [19] was 5.02%, the cell viability [20] was 4.24% and the cell viability [21] was 2.31%. The cell viability [22] was 3.42%, the cell viability [23] was 99.5% and the cell viability [24] was 106%. For the same compound, the cell viability [25] was 101%, the cell viability [26] was 86.3% and the cell viability [27] was 17.5%. For the same compound, the cell viability [28] was 10%, the cell viability [29] was 6.06% and the cell viability [30] was 4.9%. The cell viability [31] was 4.26%, the cell viability [32] was 2.44% and the cell viability [33] was 3.2%.

`COc1ccc(F)c(F)c1C(=O)c1cnc(NC2CCN([S+](C)(=O)[O-])CC2)nc1N` was tested, and the cell viability [1] was 94.9%, the cell viability [2] was 103% and the cell viability [3] was 109%. It also gave a cell viability [4] of 113%, a cell viability [5] of 109% and a cell viability [6] of 113%. For the same compound, the cell viability [7] was 64.6%, the cell viability [8] was 79% and the cell viability [9] was 41.6%. For the same compound, the cell viability [10] was 4.32%, the cell viability [11] was 1.78% and the cell viability [12] was 115%. It also gave a cell viability [13] of 130%, a cell viability [14] of 121% and a cell viability [15] of 130%. The cell viability [16] was 123%, the cell viability [17] was 135% and the cell viability [18] was 80.4%. For the same compound, the cell viability [19] was 83.1%, the cell viability [20] was 43.4% and the cell viability [21] was 3.24%. The cell viability [22] was 1.43%, the cell viability [23] was 101% and the cell viability [24] was 97.7%. For the same compound, the cell viability [25] was 111%, the cell viability [26] was 98.2% and the cell viability [27] was 99.3%. It also gave a cell viability [28] of 114%, a cell viability [29] of 77.4% and a cell viability [30] of 91.1%. For the same compound, the cell viability [31] was 54.1%, the cell viability [32] was 3.36% and the cell viability [33] was 1.73%.

In the case of `O=C1NC(=O)/C(=C/c2ccc3nccnc3c2)S1`, the cell viability [1] is reported as 117%, the cell viability [2] is reported as 123% and the cell viability [3] is reported as 128%. It also gave a cell viability [4] of 114%, a cell viability [5] of 120% and a cell viability [6] of 113%. The cell viability [7] was 109%, the cell viability [8] was 105% and the cell viability [9] was 97%. The cell viability [10] was 104%, the cell viability [11] was 102% and the cell viability [12] was 120%. It also gave a cell viability [13] of 136%, a cell viability [14] of 115% and a cell viability [15] of 126%. It also gave a cell viability [16] of 136%, a cell viability [17] of 120% and a cell viability [18] of 128%. It also gave a cell viability [19] of 115%, a cell viability [20] of 73% and a cell viability [21] of 99.5%. It also gave a cell viability [22] of 103%.

`Oc1cc(-c2nc(-c3ccccc3)[nH]c2-c2ccncc2)ccc1Cl` gave a cell viability [1] of 105%, a cell viability [2] of 115% and a cell viability [3] of 118%. It also gave a cell viability [4] of 110%, a cell viability [5] of 104% and a cell viability [6] of 122%. It also gave a cell viability [7] of 103%, a cell viability [8] of 104% and a cell viability [9] of 107%. The cell viability [10] was 100%, the cell viability [11] was 80.3% and the cell viability [12] was 120%. The cell viability [13] was 114%, the cell viability [14] was 115% and the cell viability [15] was 117%. For the same compound, the cell viability [16] was 107%, the cell viability [17] was 111% and the cell viability [18] was 122%. For the same compound, the cell viability [19] was 116%, the cell viability [20] was 106% and the cell viability [21] was 111%. It also gave a cell viability [22] of 45.2%.
